Laboratory results as given in patent publication US10597378B2 (priority 2017, dated 2020).
Where two headings read alike, the source gives them in different places.

What was measured:
B6 mice [1] = assay: Cardiovascular function test (tail cuff plethysmography); details: acute, equi-antinociceptive doses
[2] = tested on: oxaliplatin-injected B6 mice; assay: Oxaliplatin-induced neuropathic pain, mechanical allodynia (Von Frey test); format: in vivo, mouse; details: PID 3, 30 min after treatment, equi-antinociceptive doses
Method: (§1) To induce neuropathic pain, each B6 mouse was intraperitoneally injected with either oxaliplatin (3.0 mg/kg), or vehicle (saline) after habituation to the test environment and baseline measurements of pain sensitivity. […] To induce cancer pain, each B6 mouse was injected with either 20 μL phosphate-buffered saline or cells (6×10^5 cells/20 μL phosphate-buffered saline) in the footpad of the right hind paw under isoflurane anesthesia on post-inoculation day 0. On post-inoculation day 19, i.e., the test day, mice were placed on a mesh floor with 5×5 mm holes, covered with a cup to prevent visual stimulation, and allowed to adapt for 1 h prior to testing. […] The tests were initiated with 0.5 g force. Briefly, whenever a withdrawal response occurred, the next weaker von Frey filament was applied. On the other hand, whenever no withdrawal response occurred, the next stronger filament was applied. Mechanical allodynia was defined as changes in the amount of pressure to induce the hind paw withdrawal.
This treatment paradigm was followed to produce neuropathic pain mice.

B6 mice [3] = assay: Tail-clip test (mechanical pain); format: in vivo, mouse; details: wildtype B6 mice
Method: Each B6 mouse was placed in an acrylic box (10 cm in diameter, 30 cm high) and allowed to acclimate for 5 min before testing, and then a clip was applied 1-cm from the base of the tail. The latency to bite or grasp the clip was measured during the clip was applied to the tail. […] Regardless of the response to 20 s, a cut off time was set to avoid tissue damage.

B6 mice [4] = assay: Respiratory function test; details: acute, equi-antinociceptive doses, 10-60 min
[5] = tested on: melanoma cell-implanted B6 mice; assay: Cancer-induced pain, cold allodynia (acetone drop test); format: in vivo, mouse; details: PID18, 30 min after treatment
Method: In cancer-induced pain model, cold allodynia in mice was assessed by using the acetone test. Absolute acetone (100%) in a volume of 5 μL was placed on the base of the paw in mice. […]
(§2) The cold allodynia was tested using acetone drop test and mechanical allodynia was measured using the Von Frey test to examine the antinociceptive effects of each drug treatment.

MOR [6] = biological target: T1, MOR (Homo sapiens, UniProt P35372); assay: cell-based; design: host or cells: CHO-K1 (CHO-K1-MOR)
Method: The PathHunter G protein-coupled receptor β-arrestin-2 assay (DiscoveRx) was performed according to the manufacturer's protocol. Briefly, when β-arrestin-2 translocates to the active receptor, complementary β-galactosidase fragments fused to the receptor and β-arrestin-2 interact to form a functional enzyme, which can be detected by chemiluminescence.
Cells (5,000 per well) were then seeded in black 384-well assay plates with a CP2 reagent (DiscoveRx) and incubated for 24 h before running the assay. After each treatment, cells were incubated at room temperature for 1.5 h, followed by the addition of 8 μl of the PathHunter Detection reagent (DiscoveRx) and incubated for 1 h. Luminescence was detected using a Victor 2 plate reader. Studies were performed on the same day and the same passage of cells was used to ensure accurate comparisons of data.
Opioid receptors have been reported to couple to G protein-independent β-arrestin-2-mediated pathways. […] The potency of the above three molecules in a β-arrestin-2 recruitment assay (PathHunter), which was based on enzyme complementation in Chinese hamster ovary (CHO)-K1 cells expressing human MOR (CHO-K1-MOR), was further examined.

MOR [7] = biological target: T1, MOR; assay: cell-based; design: expressed in transfected cells; host or cells: CHO-K1/MOR/Ga15 cells; details: read-out: FLIPR Ca2+ EC50
Method: In an exemplary in vitro assay for identifying MOR agonists, cells that express a MOR are treated with a test compound in a cellular calcium fluorescent assay and calcium fluorescence intensity is then measured to determine whether the MOR is activated. A test compound is identified as a MOR agonist if the MOR is activated.
EC50 herein refers to the concentration of a compound that induces a response halfway between the baseline and the maximum after a specified exposure time. AUC refers to the area under the response curve, an indication of the compound's capability of activating a MOR.
One day before the assay, CORNING® black with clear flat bottom 96-well assay plates were coated with a 0.1 mg/mL Poly-L-Lysine solution. CHO-K1/MOR/Ga15 cells were suspended in the F12 medium and plated at a density of about 8×10^4 cells/well in […] medium. Cells were incubated in a humidified atmosphere of 10% CO2 at 37° C. overnight so as to reach an 80-90% confluent cell monolayer before the assay. On the day of the assay, 150 μL medium/well was removed from plate. […] Compounds and other reagents were dissolved in the assay buffer. […] The [Ca^2+]i fluorescence was measured up to 90 s after agonist injection.

[8] = tested on: wild-type C57BL/6 (B6) mice; assay: Tail flick test (acute thermal pain); format: in vivo, mouse
[9] = tested on: melanoma cell-implanted B6 mice; assay: Cancer-induced pain (B16-F1 melanoma), mechanical allodynia (Von Frey test); format: in vivo, mouse
Method: as §1, with “On post-inoculation day 19, i.e., the test day, mice were placed on a mesh floor with 5×5 mm holes, covered with a cup to prevent visual stimulation, and allowed to adapt for 1 h prior to testing.” left out
as §2

myc-tagged human MOR = biological target: T2, myc-tagged human MOR (Homo sapiens, UniProt P35372); assay: cell-based
T2 construct: myc; host or cells: mouse pituitary AtT-20 cells
T2 sequence (P35372 whole entry): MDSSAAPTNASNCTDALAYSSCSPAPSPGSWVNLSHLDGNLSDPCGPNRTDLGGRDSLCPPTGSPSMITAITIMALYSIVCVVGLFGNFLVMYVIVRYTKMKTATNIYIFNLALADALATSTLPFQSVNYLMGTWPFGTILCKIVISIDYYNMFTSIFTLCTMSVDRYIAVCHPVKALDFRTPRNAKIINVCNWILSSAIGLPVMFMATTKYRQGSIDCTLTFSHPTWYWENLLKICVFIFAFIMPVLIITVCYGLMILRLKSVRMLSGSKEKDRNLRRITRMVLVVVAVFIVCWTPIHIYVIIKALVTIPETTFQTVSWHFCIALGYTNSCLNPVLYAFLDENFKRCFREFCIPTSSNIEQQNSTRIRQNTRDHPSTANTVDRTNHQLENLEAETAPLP

T1 sequence (P35372 whole entry, the tested form may be a part): as the sequence (P35372 whole entry) above

CN1CCc2ccccc2C1CNC(=O)c1ccc(Cl)c(Cl)c1 (stereo not shown) [Compound 67, 3,4-Dichloro-N-[(2-methyl-1,2,3,4-tetrahydro-1-isoquinolinyl)methyl]benzamide]
cardiovascular function (B6 mice [1]): minimal effect on cardiovascular function
antinociceptive effect in oxaliplatin-induced sensory allodynia [2]: comparable to that of morphine
antinociception of mechanical pain (B6 mice [3]): higher antinociceptive effect with mechanical stimuli than morphine
respiratory frequency (B6 mice [4]): kept recovery of respiratory frequency after 30 min
licking and shaking frequency [5]: less than that of morphine
EC50 (MOR [6]): 1900 nM
Emax of β-arrestin recruitment relative to morphine (MOR [6]): 3 fold
β-arrestin recruitment, comparison (MOR [6]): more β-arrestin recruitment than that in morphine but induced less β-arrestin recruitment than Met-5
EC50 (MOR [7]): 10 nM
ED50 ([8]; Mus musculus, sc, single subcutaneous injection, read-out: ED50 of antinociception): 0.78 mg/kg
time at which analgesic effects were exerted after acute injection ([8]; equi-antinociceptive doses, B6 mice): 10 min
antinociception (% of MPE, AUC) ([8]; single dose subcutaneous injection, 30-120 min): produced equi-antinociceptive effects at doses of 0.6-1.8 mg/kg
antinociceptive effect after twice daily injection ([9]; 30 min on PID 21 and PID 23): more than that of morphine
withdrawal threshold ([9]; PID19, 30 min after treatment, equi-antinociceptive doses): greater than that of morphine
EC50 (myc-tagged human MOR): 59.9 nM
Emax of membrane potential hyperpolarization (myc-tagged human MOR): slightly higher than that of morphine
